Experimental data from US20240115622A1, “FORMULATION FOR THE PREVENTION AND/OR TREATMENT OF COVID-19” (priority 2022, published 2024).
Like-named read-outs stand apart in the source and are kept apart here.

Key:
[1] = tested on: human respiratory coronavirus OC43; experiment: HCT-8 cells infected with human respiratory coronavirus OC43, antiviral effect (CPE, WST-1); assay type: cell-based
VERO E6 cells [2] = experiment: cytotoxicity of the compounds on Vero E6 cells
porcine coronavirus PEDV = experiment: PEDV infection of Vero E6 cells, antiviral activity by CPE
VERO E6 cells [3] = tested on: VERO E6 cells

| Compound | time for which a significant effect was sustained ([1]; after 2 hours of treatment exposure) [days] | concentration with optimal effect in protecting cells from coronaviral infection ([1]; overall conclusion of the coronavirus experiments) [%] | cytotoxicity, effect of low concentration of FBS (VERO E6 cells [2]; medium supplemented with 2% FBS) | cytotoxicity (VERO E6 cells [2]; medium without FBS) | visual scores of the CPE, effect against PEDV infection (porcine coronavirus PEDV; FIG. 1, 3 days post infection, PEDV-infected Vero E6 cells, low concentrations) | low concentration with protective effect against PEDV infection (below the cytotoxic concentrations) (porcine coronavirus PEDV; Vero E6 cells, medium with 2% FBS, speculated, to be better sustained) [%] | PEDV induced cytotoxicity (porcine coronavirus PEDV; medium without FBS, high concentrations of the compound) | cytotoxicity (VERO E6 cells [3]) | cytotoxicity, effect of low concentration of FBS (VERO E6 cells [3]) |
| --- | --- | --- | --- | --- | --- | --- | --- | --- | --- |
| OC[C@@H](O)[C@H](O)[C@@H](O)CO [xylitol] | 4 | 0.5 | significantly decreased | very high | protective effects | ≤ 3 | higher |  |  |
| propolis |  |  |  |  |  |  |  | very high | significantly decreased |
